{"source": "ChEMBL document CHEMBL4804286", "about": "“3-amino-4-(4-(4 (dimethylcarbamoyl) phenyl)-1,4-diazepan-1-yl) thieno [2,3-b] pyridine-2-carboxamide for use in cancer therapy and formulations comprising the same” (2020)", "key": {"[1]": {"molecular_target": "Serine/threonine-protein kinase Nek2 (Homo sapiens) (UniProt P51955)", "test": "Inhibition of human NEK2 assessed as percent of control at 2000 nM by KINOMEscan assay relative to control", "set-up": "scale not given: the % may be the effect or the level left"}, "[2]": {"molecular_target": "5'-AMP-activated protein kinase catalytic subunit alpha-1 (Homo sapiens) (UniProt Q13131)", "test": "Inhibition of human AMPK-alpha1 assessed as percent of control at 2000 nM by KINOMEscan assay relative to control", "set-up": "scale not given: the % may be the effect or the level left"}, "[3]": {"molecular_target": "Fibroblast growth factor receptor 2 (Homo sapiens) (UniProt P21802)", "sequence (P21802 22-821 limits assumed)": "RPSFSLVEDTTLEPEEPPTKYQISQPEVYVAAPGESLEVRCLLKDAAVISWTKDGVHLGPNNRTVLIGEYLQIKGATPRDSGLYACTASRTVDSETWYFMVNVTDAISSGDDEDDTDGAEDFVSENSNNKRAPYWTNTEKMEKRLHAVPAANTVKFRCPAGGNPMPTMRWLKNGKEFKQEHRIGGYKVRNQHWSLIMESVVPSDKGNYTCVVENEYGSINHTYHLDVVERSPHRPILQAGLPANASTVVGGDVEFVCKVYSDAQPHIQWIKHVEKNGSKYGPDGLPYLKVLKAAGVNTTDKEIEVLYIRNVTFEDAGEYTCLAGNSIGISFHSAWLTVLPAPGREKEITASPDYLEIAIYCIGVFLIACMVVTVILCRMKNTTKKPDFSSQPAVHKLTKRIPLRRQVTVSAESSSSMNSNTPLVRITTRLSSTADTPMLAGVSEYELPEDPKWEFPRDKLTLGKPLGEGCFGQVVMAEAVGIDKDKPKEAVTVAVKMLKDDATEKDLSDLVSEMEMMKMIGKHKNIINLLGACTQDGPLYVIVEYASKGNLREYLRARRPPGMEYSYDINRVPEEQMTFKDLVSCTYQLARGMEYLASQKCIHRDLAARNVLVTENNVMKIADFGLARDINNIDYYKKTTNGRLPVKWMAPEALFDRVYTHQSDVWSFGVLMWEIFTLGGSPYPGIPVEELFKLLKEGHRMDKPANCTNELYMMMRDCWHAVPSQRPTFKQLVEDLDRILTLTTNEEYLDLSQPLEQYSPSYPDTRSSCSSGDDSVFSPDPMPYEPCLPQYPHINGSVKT", "test": "Inhibition of human FGFR2 assessed as percent of control at 2000 nM by KINOMEscan assay relative to control", "set-up": "scale not given: the % may be the effect or the level left"}, "[4]": {"system": "Hepatocyte growth factor receptor (Homo sapiens), P08581 [Y1235D]", "test": "Inhibition of human MET Y1235D mutant assessed as percent of control at 2000 nM by KINOMEscan assay relative to control", "set-up": "scale not given: the % may be the effect or the level left"}, "[5]": {"molecular_target": "Cyclin-dependent kinase 19 (Homo sapiens) (UniProt Q9BWU1)", "test": "Inhibition of human CDK11 assessed as percent of control at 2000 nM by KINOMEscan assay relative to control", "set-up": "scale not given: the % may be the effect or the level left", "conditions": "INHIBITOR"}, "[6]": {"molecular_target": "Phosphatidylinositol 4-phosphate 3-kinase C2 domain-containing subunit beta (Homo sapiens) (UniProt O00750)", "test": "Inhibition of human PIK3CB assessed as percent of control at 2000 nM by KINOMEscan assay relative to control", "set-up": "scale not given: the % may be the effect or the level left"}, "[7]": {"system": "Epidermal growth factor receptor (Homo sapiens), P00533 [UNDEFINED MUTATION]", "test": "Inhibition of human EGFR L747-E749del/A750P double mutant assessed as percent of control at 2000 nM by KINOMEscan assay relative to control", "set-up": "scale not given: the % may be the effect or the level left"}, "[8]": {"molecular_target": "AP2-associated protein kinase 1 (Homo sapiens) (UniProt Q2M2I8)", "test": "Inhibition of human AAK1 assessed as percent of control at 2000 nM by KINOMEscan assay relative to control", "set-up": "scale not given: the % may be the effect or the level left"}, "[9]": {"molecular_target": "Serine/threonine-protein kinase D1 (Homo sapiens) (UniProt Q15139)", "test": "Inhibition of human PRKD1 assessed as percent of control at 2000 nM by KINOMEscan assay relative to control", "set-up": "scale not given: the % may be the effect or the level left"}, "[10]": {"molecular_target": "Dual specificity protein kinase CLK3 (Homo sapiens) (UniProt P49761)", "test": "Inhibition of human CLK3 assessed as percent of control at 2000 nM by KINOMEscan assay relative to control", "set-up": "scale not given: the % may be the effect or the level left"}, "[11]": {"molecular_target": "Protein-tyrosine kinase 2-beta (Homo sapiens) (UniProt Q14289)", "test": "Inhibition of human PYK2 assessed as percent of control at 2000 nM by KINOMEscan assay relative to control", "set-up": "scale not given: the % may be the effect or the level left"}, "[12]": {"molecular_target": "Mitogen-activated protein kinase kinase kinase 9 (Homo sapiens) (UniProt P80192)", "test": "Inhibition of human MLK1 assessed as percent of control at 2000 nM by KINOMEscan assay relative to control", "set-up": "scale not given: the % may be the effect or the level left"}, "[13]": {"system": "Receptor-type tyrosine-protein kinase FLT3 (Homo sapiens), P36888 [UNDEFINED MUTATION]", "test": "Inhibition of human FLT3 ITD/D835V double mutant assessed as percent of control at 2000 nM by KINOMEscan assay relative to control", "set-up": "scale not given: the % may be the effect or the level left", "conditions": "INHIBITOR"}, "[14]": {"molecular_target": "Tyrosine-protein kinase JAK2 (Homo sapiens) (UniProt O60674)", "sequence (O60674 whole entry, the tested form may be a part)": "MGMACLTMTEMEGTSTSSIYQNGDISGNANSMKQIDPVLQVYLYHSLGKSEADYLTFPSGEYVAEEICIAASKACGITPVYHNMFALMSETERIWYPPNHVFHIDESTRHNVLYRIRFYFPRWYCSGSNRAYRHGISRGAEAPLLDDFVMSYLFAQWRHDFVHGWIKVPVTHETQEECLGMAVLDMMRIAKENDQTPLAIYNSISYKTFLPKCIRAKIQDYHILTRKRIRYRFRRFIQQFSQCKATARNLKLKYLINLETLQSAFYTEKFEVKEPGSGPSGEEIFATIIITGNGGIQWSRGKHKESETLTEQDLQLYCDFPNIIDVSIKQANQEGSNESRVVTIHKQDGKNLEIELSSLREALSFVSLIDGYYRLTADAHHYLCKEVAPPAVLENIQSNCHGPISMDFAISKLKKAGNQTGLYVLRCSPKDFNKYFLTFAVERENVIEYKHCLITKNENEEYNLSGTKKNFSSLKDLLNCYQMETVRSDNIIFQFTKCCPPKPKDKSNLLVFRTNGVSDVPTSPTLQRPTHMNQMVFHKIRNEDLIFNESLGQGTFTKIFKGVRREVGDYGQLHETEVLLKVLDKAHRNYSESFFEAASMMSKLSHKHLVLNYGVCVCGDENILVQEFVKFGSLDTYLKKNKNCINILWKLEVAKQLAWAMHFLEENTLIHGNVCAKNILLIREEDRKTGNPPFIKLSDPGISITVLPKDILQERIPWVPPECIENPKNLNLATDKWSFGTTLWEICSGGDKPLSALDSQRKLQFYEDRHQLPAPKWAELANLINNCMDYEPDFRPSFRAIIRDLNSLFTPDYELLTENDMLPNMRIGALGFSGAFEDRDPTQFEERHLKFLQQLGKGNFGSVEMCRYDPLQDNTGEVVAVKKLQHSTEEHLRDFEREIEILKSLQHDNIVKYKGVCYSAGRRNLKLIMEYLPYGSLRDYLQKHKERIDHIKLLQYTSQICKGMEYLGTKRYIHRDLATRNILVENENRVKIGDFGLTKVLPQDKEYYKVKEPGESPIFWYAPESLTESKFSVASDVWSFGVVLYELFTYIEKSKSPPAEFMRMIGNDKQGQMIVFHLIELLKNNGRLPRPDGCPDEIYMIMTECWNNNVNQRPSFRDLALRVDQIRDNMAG", "test": "Inhibition of human JAK2 JH1 catalytic domain assessed as percent of control at 2000 nM by KINOMEscan assay relative to control", "set-up": "scale not given: the % may be the effect or the level left"}, "[15]": {"molecular_target": "Cyclin-dependent kinase-like 2 (Homo sapiens) (UniProt Q92772)", "test": "Inhibition of human CDKL2 assessed as percent of control at 2000 nM by KINOMEscan assay relative to control", "set-up": "scale not given: the % may be the effect or the level left"}, "CWR22R": {"system": "CWR22R", "test": "Antitumor activity against human 22Rv1 cells expressing AR-V7 xenografted in male nude mouse assessed as suppression of tumor growth at 50 mg/kg, administered twice a day for 40 days", "format": "functional, organism-based"}, "[16]": {"molecular_target": "Testis-specific serine/threonine-protein kinase 1 (Homo sapiens) (UniProt Q9BXA7)", "test": "Inhibition of human TSSK1B assessed as percent of control at 2000 nM by KINOMEscan assay relative to control", "set-up": "scale not given: the % may be the effect or the level left"}, "[17]": {"molecular_target": "Focal adhesion kinase 1 (Homo sapiens) (UniProt Q05397)", "test": "Inhibition of human FAK assessed as percent of control at 2000 nM by KINOMEscan assay relative to control", "set-up": "scale not given: the % may be the effect or the level left"}, "[18]": {"molecular_target": "Mitogen-activated protein kinase kinase kinase kinase 2 (Homo sapiens) (UniProt Q12851)", "test": "Inhibition of human MAP4K2 assessed as percent of control at 2000 nM by KINOMEscan assay relative to control", "set-up": "scale not given: the % may be the effect or the level left"}, "[19]": {"molecular_target": "RAC-gamma serine/threonine-protein kinase (Homo sapiens) (UniProt Q9Y243)", "sequence (Q9Y243 whole entry)": "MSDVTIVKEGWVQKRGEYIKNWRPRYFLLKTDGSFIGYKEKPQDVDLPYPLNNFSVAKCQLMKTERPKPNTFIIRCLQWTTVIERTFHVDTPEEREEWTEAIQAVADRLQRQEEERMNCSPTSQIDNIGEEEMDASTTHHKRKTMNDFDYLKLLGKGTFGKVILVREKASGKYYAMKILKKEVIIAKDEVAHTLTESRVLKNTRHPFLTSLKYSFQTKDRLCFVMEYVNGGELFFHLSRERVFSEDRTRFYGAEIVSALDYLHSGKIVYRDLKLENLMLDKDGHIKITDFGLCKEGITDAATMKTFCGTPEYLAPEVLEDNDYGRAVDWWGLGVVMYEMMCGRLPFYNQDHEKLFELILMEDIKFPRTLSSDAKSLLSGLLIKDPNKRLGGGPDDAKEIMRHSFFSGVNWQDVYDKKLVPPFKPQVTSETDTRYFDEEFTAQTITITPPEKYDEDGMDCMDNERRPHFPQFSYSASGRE", "test": "Inhibition of human AKT3 assessed as percent of control at 2000 nM by KINOMEscan assay relative to control", "set-up": "scale not given: the % may be the effect or the level left"}, "[20]": {"system": "Proto-oncogene tyrosine-protein kinase receptor Ret (Homo sapiens), P07949 [V804M]", "test": "Inhibition of human RET V804M mutant assessed as percent of control at 2000 nM by KINOMEscan assay relative to control", "set-up": "scale not given: the % may be the effect or the level left"}, "[21]": {"molecular_target": "Mitogen-activated protein kinase kinase kinase 5 (Homo sapiens) (UniProt Q99683)", "test": "Inhibition of human ASK1 assessed as percent of control at 2000 nM by KINOMEscan assay relative to control", "set-up": "scale not given: the % may be the effect or the level left"}, "[22]": {"molecular_target": "Serine/threonine-protein kinase 32C (Homo sapiens) (UniProt Q86UX6)", "test": "Inhibition of human YANK3 assessed as percent of control at 2000 nM by KINOMEscan assay relative to control", "set-up": "scale not given: the % may be the effect or the level left"}, "[23]": {"system": "Proto-oncogene tyrosine-protein kinase receptor Ret (Homo sapiens), P07949 [M918T]", "test": "Inhibition of human RET M918T mutant assessed as percent of control at 2000 nM by KINOMEscan assay relative to control", "set-up": "scale not given: the % may be the effect or the level left"}, "[24]": {"system": "Proto-oncogene tyrosine-protein kinase receptor Ret (Homo sapiens), P07949 [V804L]", "sequence (P07949 whole entry V804L)": "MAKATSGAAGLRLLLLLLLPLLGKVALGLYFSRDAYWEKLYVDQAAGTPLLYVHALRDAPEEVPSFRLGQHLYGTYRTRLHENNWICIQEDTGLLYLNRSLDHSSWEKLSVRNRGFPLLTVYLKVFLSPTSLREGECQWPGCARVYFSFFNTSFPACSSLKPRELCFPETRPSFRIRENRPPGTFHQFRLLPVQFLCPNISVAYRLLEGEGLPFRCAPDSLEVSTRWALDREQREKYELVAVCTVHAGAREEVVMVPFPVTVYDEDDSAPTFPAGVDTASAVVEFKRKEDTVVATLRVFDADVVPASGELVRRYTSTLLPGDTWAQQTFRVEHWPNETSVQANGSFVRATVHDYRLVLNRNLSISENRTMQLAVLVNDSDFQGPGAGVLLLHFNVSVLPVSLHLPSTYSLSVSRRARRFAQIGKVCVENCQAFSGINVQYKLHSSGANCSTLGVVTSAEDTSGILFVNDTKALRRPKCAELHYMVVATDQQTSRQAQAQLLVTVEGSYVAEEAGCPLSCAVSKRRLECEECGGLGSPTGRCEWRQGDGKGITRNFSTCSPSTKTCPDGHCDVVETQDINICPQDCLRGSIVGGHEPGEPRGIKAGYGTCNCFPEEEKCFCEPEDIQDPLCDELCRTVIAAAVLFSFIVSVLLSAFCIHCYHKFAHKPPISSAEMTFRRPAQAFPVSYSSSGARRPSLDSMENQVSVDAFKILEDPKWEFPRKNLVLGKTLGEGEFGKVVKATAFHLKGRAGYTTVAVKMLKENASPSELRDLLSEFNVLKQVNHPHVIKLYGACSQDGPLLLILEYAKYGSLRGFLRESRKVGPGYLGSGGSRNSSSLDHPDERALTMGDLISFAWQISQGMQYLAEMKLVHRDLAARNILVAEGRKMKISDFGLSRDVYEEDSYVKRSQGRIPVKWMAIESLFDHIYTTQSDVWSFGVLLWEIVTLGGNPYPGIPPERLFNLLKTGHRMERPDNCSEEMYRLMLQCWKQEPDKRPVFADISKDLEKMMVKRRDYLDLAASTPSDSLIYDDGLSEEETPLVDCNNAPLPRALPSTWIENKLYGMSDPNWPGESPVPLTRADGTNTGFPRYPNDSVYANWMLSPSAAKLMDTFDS", "test": "Inhibition of human RET V804L mutant assessed as percent of control at 2000 nM by KINOMEscan assay relative to control", "set-up": "scale not given: the % may be the effect or the level left"}, "[25]": {"molecular_target": "Beta-adrenergic receptor kinase 1 (Homo sapiens) (UniProt P25098)", "test": "Inhibition of human GRK2 assessed as percent of control at 2000 nM by KINOMEscan assay relative to control", "set-up": "scale not given: the % may be the effect or the level left"}, "[26]": {"molecular_target": "Casein kinase I isoform epsilon (Homo sapiens) (UniProt P49674)", "conditions": "INHIBITOR, dose 2000.0 nM", "description": "Inhibition of human CSNK1E at 2000 nM by KINOMEscan assay"}, "[27]": {"molecular_target": "Atypical kinase COQ8A, mitochondrial (Homo sapiens) (UniProt Q8NI60)", "test": "Inhibition of human ADCK3 assessed as percent of control at 2000 nM by KINOMEscan assay relative to control", "set-up": "scale not given: the % may be the effect or the level left"}, "[28]": {"molecular_target": "Casein kinase I isoform gamma-2 (Homo sapiens) (UniProt P78368)", "sequence (P78368 whole entry, looked up, canonical isoform)": "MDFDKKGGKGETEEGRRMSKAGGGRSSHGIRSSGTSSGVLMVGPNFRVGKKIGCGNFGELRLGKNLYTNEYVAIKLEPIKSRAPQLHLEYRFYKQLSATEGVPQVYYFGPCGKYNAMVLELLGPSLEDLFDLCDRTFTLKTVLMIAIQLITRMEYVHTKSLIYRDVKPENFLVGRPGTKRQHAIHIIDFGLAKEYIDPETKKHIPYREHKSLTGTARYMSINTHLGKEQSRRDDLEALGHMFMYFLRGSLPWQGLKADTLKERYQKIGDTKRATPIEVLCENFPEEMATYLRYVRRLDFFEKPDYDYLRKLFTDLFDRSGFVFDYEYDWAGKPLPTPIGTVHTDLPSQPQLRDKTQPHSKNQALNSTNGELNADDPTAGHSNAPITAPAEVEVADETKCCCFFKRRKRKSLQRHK", "test": "Inhibition of human CSNK1G2 assessed as percent of control at 2000 nM by KINOMEscan assay relative to control", "set-up": "scale not given: the % may be the effect or the level left"}, "[29]": {"system": "Tyrosine-protein kinase ABL1 (Homo sapiens), P00519 [E255K]", "sequence (P00519 whole entry E255K)": "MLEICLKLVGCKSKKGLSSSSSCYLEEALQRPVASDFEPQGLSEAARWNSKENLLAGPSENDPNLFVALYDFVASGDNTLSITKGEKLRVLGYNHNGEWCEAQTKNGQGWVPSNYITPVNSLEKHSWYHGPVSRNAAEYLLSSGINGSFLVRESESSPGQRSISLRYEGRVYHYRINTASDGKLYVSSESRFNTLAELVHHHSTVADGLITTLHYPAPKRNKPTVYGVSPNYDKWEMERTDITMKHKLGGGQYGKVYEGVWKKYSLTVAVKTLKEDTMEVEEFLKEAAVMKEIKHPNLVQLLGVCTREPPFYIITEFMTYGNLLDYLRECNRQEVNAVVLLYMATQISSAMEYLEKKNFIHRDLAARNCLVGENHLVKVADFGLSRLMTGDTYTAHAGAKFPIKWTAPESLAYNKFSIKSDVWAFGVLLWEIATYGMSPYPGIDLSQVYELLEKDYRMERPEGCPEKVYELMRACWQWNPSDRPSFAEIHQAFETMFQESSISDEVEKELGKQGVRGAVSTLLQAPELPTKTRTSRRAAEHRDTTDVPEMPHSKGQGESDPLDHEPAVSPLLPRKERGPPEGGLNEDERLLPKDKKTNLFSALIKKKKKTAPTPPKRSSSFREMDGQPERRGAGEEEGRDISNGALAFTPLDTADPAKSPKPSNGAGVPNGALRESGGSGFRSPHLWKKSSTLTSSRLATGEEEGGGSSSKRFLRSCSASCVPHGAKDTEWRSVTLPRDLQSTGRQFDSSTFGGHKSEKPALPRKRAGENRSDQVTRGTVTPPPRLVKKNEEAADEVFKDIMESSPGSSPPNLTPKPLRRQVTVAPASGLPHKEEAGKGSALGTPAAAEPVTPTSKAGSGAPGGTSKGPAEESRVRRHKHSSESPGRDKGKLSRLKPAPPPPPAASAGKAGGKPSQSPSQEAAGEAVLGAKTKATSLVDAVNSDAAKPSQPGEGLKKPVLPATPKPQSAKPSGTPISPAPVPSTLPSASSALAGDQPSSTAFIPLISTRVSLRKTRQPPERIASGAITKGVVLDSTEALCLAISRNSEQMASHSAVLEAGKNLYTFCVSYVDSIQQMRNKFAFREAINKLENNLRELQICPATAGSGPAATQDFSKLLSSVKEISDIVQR", "test": "Inhibition of phosphorylated human ABL1 E255K mutant assessed as percent of control at 2000 nM by KINOMEscan assay relative to control", "set-up": "scale not given: the % may be the effect or the level left"}}, "note": "“And” between values parts separate entries of the source, which are not always exact repeats. Equal entries are not always repeated. The source made the active and inactive calls. The rule behind the calls is not given here.", "data": [{"molecule": "CN(C)C(=O)c1ccc(N2CCCN(c3ccnc4sc(C(N)=O)c(N)c34)CC2)cc1", "values": [{"measurement": "Activity", "setting": "[1]", "value": 95, "unit": "%"}, {"measurement": "Activity", "setting": "[2]", "value": 100, "unit": "%"}, {"measurement": "Activity", "setting": "[3]", "value": "99% and 98%"}, {"measurement": "Activity", "setting": "[4]", "value": 100, "unit": "%"}, {"measurement": "Activity", "setting": "[5]", "value": "13% and 0%"}, {"measurement": "Activity", "setting": "[6]", "value": "100% and 95%"}, {"measurement": "Activity", "setting": "[7]", "value": "99% and 100%"}, {"measurement": "Activity", "setting": "[8]", "value": "94% and 90%"}, {"measurement": "Activity", "setting": "[9]", "value": "88% and 92%"}, {"measurement": "Activity", "setting": "[10]", "value": "100% and 95%"}, {"measurement": "Activity", "setting": "[11]", "value": "97% and 84%"}, {"measurement": "Activity", "setting": "[12]", "value": "95% and 92%"}, {"measurement": "Activity", "setting": "[13]", "value": "41% and 34%"}, {"measurement": "Activity", "setting": "[14]", "value": "100% and 93%"}, {"measurement": "Activity", "setting": "[15]", "value": "86% and 96%"}, {"measurement": "Activity", "setting": "CWR22R", "value": "Active"}, {"measurement": "Activity", "setting": "[16]", "value": "80% and 99%"}, {"measurement": "Activity", "setting": "[17]", "value": "100% and 96%"}, {"measurement": "Activity", "setting": "[18]", "value": "84% and 66%"}, {"measurement": "Activity", "setting": "[19]", "value": "97% and 100%"}, {"measurement": "Activity", "setting": "[20]", "value": 100, "unit": "%"}, {"measurement": "Activity", "setting": "[21]", "value": 100, "unit": "%"}, {"measurement": "Activity", "setting": "[22]", "value": "81% and 97%"}, {"measurement": "Activity", "setting": "[23]", "value": 98, "unit": "%"}, {"measurement": "Activity", "setting": "[24]", "value": 100, "unit": "%"}, {"measurement": "Activity", "setting": "[25]", "value": "88% and 70%"}, {"measurement": "inhibition", "setting": "[26]", "value": "> 65", "unit": "%"}, {"measurement": "Activity", "setting": "[27]", "value": "90% and 100%"}, {"measurement": "Activity", "setting": "[28]", "value": "77% and 69%"}, {"measurement": "Activity", "setting": "[29]", "value": "100% and 82%"}]}]}
